From patent US4435385A, “N-Acyl-polypeptides and processes for the production thereof” (Sandoz Ltd., priority 1981, dated 1984)

System: gastric secretion
Assay: TEST II: pentagastrin-stimulated gastric secretion in pylorus-ligated rats
Assay type: in vivo, rat
Conditions: male rats, i.m., 100 μg/kg pentagastrin s.c., 30 mins; dose for 50% inhibition vs untreated controls
Method: Male rats (220-280 g) are kept in the laboratory in individual cages for several days (14 hours light/day) with 48 hours fasting (but free access to water) immediately prior to the experiment. At the start of the experiment the pylorus is ligated under ether anaesthesia and 100 μg/kg pentagastrin are injected s.c. to stimulate gastric secretion. The test compounds are injected simultaneously i.m. 30 mins. later the animals are sacrificed, the volume of gastric juice measured and the acid concentration estimated (titration with thymol blue). The acid output is calculated and the percent inhibition estimated in relation to untreated controls.

## C[C@H](N)C(=O)NCC(=O)N[C@H]1CSSC[C@@H](C(=O)O)NC(=O)[C@H](CO)NC(=O)[C@H]([C@@H](C)O)NC(=O)[C@H](Cc2ccccc2)NC(=O)[C@H]([C@@H](C)O)NC(=O)[C@H](CCCCN)NC(=O)[C@H](Cc2c[nH]c3ccccc23)NC(=O)[C@H](Cc2ccccc2)NC(=O)[C@H](Cc2ccccc2)NC(=O)[C@H](CC(N)=O)NC(=O)[C@H](CCCCN)NC1=O [somatostatin]
  ID50 in TEST II for acid concentration: 0.035 mg/kg
